Source: PMC10981997, “PEDF peptide plus hyaluronic acid stimulates cartilage regeneration in osteoarthritis via STAT3-mediated chondrogenesis” (Bone & Joint Research, 2024)

How the values were obtained:
[1] = tested on: BM-MSCs; experiment: BrdU incorporation (proliferation) of BM-MSCs in expansion medium; format: cell-based, rat; conditions: pretreatment before 29-mer 10 μM, p < 0.001 vs 29-mer
Text: Sprague-Dawley rats were anaesthetized and their femora were aseptically harvested, washed in a mixture of PBS and 1% penicillin/streptomycin for five minutes, dissected of all soft-tissue, transected at their epiphysis, and their marrow cavity rinsed repeatedly with a mixture of heparin (AGGLUTEX INJ 5,000 U/ml; working conc. 100 U/ml) and Dulbecco’s Modified Eagle Medium (DMEM; Gibco, Thermo Fisher Scientific). The harvested cells were collected, dispersed by pipetting, and centrifuged at 1,000× g for five minutes at RT. Cell pellets were resuspended with DMEM and then the cell suspension was transferred to a 15 ml centrifuge tube containing 5 ml of Percoll (1.073 g/ml; MilliporeSigma). After centrifugation at 1,500× g for 30 minutes, the mononuclear cells in the middle layer were obtained, washed three times with PBS, and suspended in expansion medium (low-glucose DMEM with 10% heat-inactivated FBS, 1% penicillin/streptomycin). […] BrdU immunostaining of BM-MSCs was performed as in Ho et al’s[14] study.
BM-MSCs were expanded for seven days in culture and then exposed to the 29-mer (10 μM) for 24 hours. Cell proliferation was detected by BrdU pulse-labelling for four hours and analyzed by BrdU immunostaining (red colour; Figure 1a).

[2] = tested on: articular cartilage (AC); experiment: In vivo BrdU labelling and immunostaining of chondrogenic markers in damaged AC; set-up: species or system rat; conditions: inhibitor 1 mM in 25 µl 5% HA intra-articular 60 min before 29-mer/HA at days 8 and 12
Description: Rats were anaesthetized by an intraperitoneal injection of xylazine (10 mg/kg) and then the right knees were injected with MIA (1 mg dissolved in 25 µl of sterile saline), using a 27-gauge needle through the patellar ligament of the knees.[18],[19] The left knee joints (control) were injected with saline. To prepare the 29-mer/HA, the 29-mer was dissolved in dimethylsulfoxide (DMSO) to make a 10 mM stock solution. Equal volumes of DMSO and 29-mer (0.5 µl) were dissolved in HA. At days 8 and 12 after MIA injection, the right knees (n = 6 per group) were randomly injected by: 1) 29-mer/25 µl of 5% HA (final concentration of 29-mer at 0.2 mM); 2) DMSO vehicle/5% HA; 3) control peptide/5% HA; 4) 5% HA alone; and 5) 29-mer/25 µl of phosphate-buffered saline (PBS; final concentration of 29-mer at 0.2 mM). […]
BrdU was reconstituted in DMSO as stock (80 mM). […] Deparaffinized sections were treated with 1N HCl at RT for 1 h, and DNA synthesis was assessed by anti-BrdU antibody. […] Images were captured using a Zeiss epifluorescence microscope with a CCD camera (Zeiss, Germany), and blinded quantification was performed in triplicate by manually counting within each section. […]

| Compound | effect of inhibitor pretreatment on the 29-mer-induced BrdU+ levels [1] | effect of inhibitor on 29-mer/HA-induced BrdU-labelled chondrocytes [2] |
| --- | --- | --- |
| C[C@H]1COC2=C1C(=O)C(=O)c1c2ccc2c1CCCC2(C)C [CPT, cryptotanshinone] | significantly suppressed | blocked |
| CN(C)C(=O)Nc1cccc(-c2ccc(N(C)C)cc2)c1 [atglistatin, Atglistatin] | significantly suppressed | blocked |
